Source: patent US20260076346A1, “IMMUNODEFICIENT NON-HUMAN ANIMALS FOR ASSESSING DRUG METABOLISM AND TOXICITY” (UNIVERSITY OF DUNDEE, priority 2022, published 2026)
“Also recorded” adds a separate entry of the source.

Tests used:
[1] = tested on: 5555 murine melanoma cell line; conditions: reported by Hirata et al.; cited from earlier work
[2] = tested on: 5555 murine melanoma cell line; conditions: reported by Hirata et al.; cited from earlier work; remark: listed apart in the source
[3] = tested on: 5555 murine melanoma cells; assay: Syngeneic graft of 5555 murine melanoma cells in 8HUM mice, tumour volume under daily oral treatment; type: in vivo, mouse; conditions: adult female 8HUM mice, n=5, 31.5 mg/kg daily p.o. from day 5 after implantation, study ended day 15, versus vehicle
Procedure: FIG. 1: A. Xenograft of BRAFV600E human melanoma A375 cells in Rag2^null/8HUM mice (top). Bottom-no growth of A375 cells in immunocompetent 8HUM mice. B. Growth of a murine melanoma syngeneic graft in 8HUM mice and response to dabrafenib treatment. Adult female 8HUM_Rag2−/− mice (18-21w, n=5) were injected subcutaneously (s.c.) in one flank with 3.5×10^6 5555 murine melanoma cells, in 100 μl ECM diluted 1:1 with DMEM. […] Tumour measurements were taken three times weekly, then daily as required, and tumour volume calculated as detailed in Methods section. […]
Data analysis: Dependencies of calculated tumour volumes versus time were analysed by non-linear regression using exponential growth and exponential decay functions (Prism 5 software, Graphpad, US). […]
A375 human melanoma cells (ATCC: CRL-1619; RRID: CVCL_UD29) and 5555 murine melanoma cells (19-21) were grown as directed, with the latter subject to commercial murine pathogen testing (IDEXX Bioanalytics GmbH, Germany) and both to in-house mycoplasma testing (MycoAlert Mycoplasma Detection kit, Lonza Rockland, USA) before use. Passage number was recorded for each study. […]
Once established, tumours were measured twice in two dimensions (maximum breadth and length) using digital callipers, by the same person to avoid interindividual variation. […]

[4] = tested on: BRAFV600E human melanoma A375 cells; assay: A375 human melanoma xenograft in 8HUM_Rag2-/- mice, tumour volume under daily oral treatment; type: in vivo; conditions: adult female 8HUM_Rag2-/- mice
Procedure: Adult female 8HUM mice (11-19w, n=3) were injected s.c. in both flanks with 4.4×10^6 A375 melanoma cells, in 100 μl DMEM. Tumours were allowed to establish and on day 28 after implantation daily treatment was commenced with either vehicle (0.5% (w/v) hydroxypropylmethylcellulose, 0.2% (v/v) Tween-80; closed circles) or dabrafenib (in vehicle, open circles) suspended at 6.3 mg/ml and administered at 5 ml/kg, such that dabrafenib dose administered was 31.5 mg/kg (arrow). Tumour measurements were taken three times weekly, then daily as required, and total volume of tumours on both flanks was calculated as detailed in Methods section.
Adult female (>8<22 weeks) mice were randomly allocated into control or experimental groups and allowed to adapt to their social setting for 7d before study start. Cages were adjacent to each other on the same level of a ventilated rack, in the same room, for the study duration.
Data analysis: Dependencies of calculated tumour volumes versus time were analysed by non-linear regression using exponential growth and exponential decay functions (Prism 5 software, Graphpad, US). Rate constants in both functions were constrained to positive values to maintain consistency with the function name. Values for plateau parameters in exponential decay function were set to zero.

SMILES | sensitivity of 5555 cell line in vivo [1] | sensitivity of 5555 cell line in vitro [2] | tumour growth / mean tumour volume of 5555 (GM5555) murine melanoma syngeneic graft [3] | tumour growth / mean tumour volume of 5555 (GM5555) murine melanoma syngeneic graft ([3]; listed as Dabrafenib) | fit of tumour volume versus time by non-linear regression (exponential growth or decay) ([4]; A375 xenograft, 31.5 mg/kg daily p.o. d28-d35, vehicle group followed exponential growth) | total mean tumour volume of A375 xenograft (both flanks) ([4]; n=3, 31.5 mg/kg daily p.o. from d28 to d35, versus vehicle)
CCCS(=O)(=O)Nc1ccc(F)c(C(=O)c2c[nH]c3ncc(Cl)cc23)c1F [PLX4720] | refractory | sensitive | – | – | – | –
CC(C)(C)c1nc(-c2cccc(NS(=O)(=O)c3c(F)cccc3F)c2F)c(-c2ccnc(N)n2)s1 [dabrafenib] | – | – | became almost undetectable; also recorded: exquisitely sensitive | successfully inhibited | follows exponential decay dependency | shrank in size
